Results published in US10077236B2, “Azacyclic constrained analogs of FTY720” (The Regents of the University of California, priority 2013, dated 2018).
“Also recorded” adds a separate entry of the source.

Key:
[1] = system: Sup-B15 BCR-ABL positive human acute lymphoblastic leukemia (ALL) cell line; assay: Cell viability assay, Sup-B15 leukemia cells (flow cytometry, vital dye exclusion); format: cell-based; settings: for cell death in combination with dasatinib: 72 h
Excerpt: (§1) Leukemia cell assays: Effects of chemical changes on ability to kill cells as observed in cell viability assays using the BCR-ABL positive human acute lymphoblastic leukemia (ALL) cell line, Sup-B15 are described. Assays using the Sup-B15 cell line were designed to determine efficacy of azacyclic constrained small molecule analogs of FTY720 in killing leukemia cells. Analogs were generated using the synthesis methods mentioned above. Sup-B15 cells were maintained at 2-3 million/mL in RPMI 1640 (by Mediatech™) supplemented with 10% fetal calf serum (by Sigma-Aldrich™), 10 mM Hepes (by Mediatech™), 55 μM β-mercaptoethanol (by Sigma-Aldrich™), 2 mM L-glutamine (by Mediatech™), and antibiotics. BV173, Nalm-6, and Blin-1 were maintained at 1-2 million/mL and CCRF-CEM at less than 500,000/mL in the same medium. BMp190 cells were created by transducing murine bone marrow cells with pMIC-p190 which expresses the p190 isoform of BCR-Abl and human CD4 from an IRES; these cells were kept at 1-2 million/mL in RPMI supplemented as above.
(§2) Flow cytometry: Much of the biological activity presented is shown through flow cytometry data. […] Here, IC50 flow cytometry assays were used. In them, viability was determined at 72 hours by vital dye exclusion [propium iodide or DAPI (4′,6-diamindino-2-phenylindole)]. To measure nutrient receptor expression following exposure to FTY720 and azacyclic constrained analogs of FTY720, surface 4F2hc expression was measured after 3 hours of drug treatment by staining 150,000 cells with phycoerythrin-conjugated mouse anti-human CD98 (by BD Biosciences™). Analysis was restricted to viable cells.
(§3) All samples for the disclosed sets of data were analyzed on a BD LSR II flow cytometer and data analyzed with FlowJo™ software (by Treestar™). IC50's were calculated and statistical tests were performed using GraphPad Prism™.

[2] = system: Blin-1 Ph- ALL cell line; assay: Cell viability assay, Blin-1; format: cell-based, human; settings: 72 h, vital dye exclusion and flow cytometry; read-out: Mean IC50 (+/- SEM) in cell viability assay, Blin-1 Ph- ALL
Excerpt: as §1, §2, §3

[3] = system: PC3 prostate cancer cell line; assay: Cell viability assay, PC3; format: cell-based, human; settings: 72 h, vital dye exclusion and flow cytometry; read-out: Mean IC50 (+/- SEM) in cell viability assay, PC3 prostate
Experimental: as §2, with “In them, viability was determined at 72 hours by vital dye exclusion [propium iodide or DAPI (4′,6-diamindino-2-phenylindole)].” left out, “cells. All samples for the disclosed sets of data were analyzed on a BD LSR II flow cytometer and data analyzed with FlowJo™ software (by Treestar™). IC50's were calculated and statistical tests were performed using GraphPad Prism™.” for “cells.”

[4] = system: DU145 prostate cancer cell line; assay: Cell viability assay, DU145; format: cell-based, human; settings: 72 h, vital dye exclusion and flow cytometry; read-out: Mean IC50 (+/- SEM) in cell viability assay, DU145 prostate
Experimental: as §2, with “In them, viability was determined at 72 hours by vital dye exclusion [propium iodide or DAPI (4′,6-diamindino-2-phenylindole)].” left out, “cells. All samples for the disclosed sets of data were analyzed on a BD LSR II flow cytometer and data analyzed with FlowJo™ software (by Treestar™). IC50's were calculated and statistical tests were performed using GraphPad Prism™.” for “cells.”

[5] = Mouse heart rate by telemetry; format: in vivo; settings: telemetry for 24 h after administration of anti-cancer dose
Excerpt: (§4) As previously discussed, FTY720 itself cannot be used in cancer patients because phosphorylation of FTY720 by SphKs makes FTY720-P, which acts at S1P receptors to cause bradycardia and immunosuppression (on-target effect for primary use).

[6] = system: circulating lymphocytes; assay: Lymphocyte sequestration (circulating lymphocytes); format: in vivo, mouse; settings: number of circulating lymphocytes 12 h after dosage
Excerpt: as §4

[7] = system: SupB15 model, leukemic burden in the bone marrow; assay: In vivo SupB15 leukemia model; settings: 21 days of treatment, 10 mg/kg i.p.
Excerpt: Since compound 6 worked so well in the leukemia cell line, an examination of its effectiveness in vivo in a SupB15 model was undertaken.

[8] = system: BCR-Abl+ leukemias compared to other cell types; assay: Ratio of IC50 of compound 6 (177) and its enantiomer compound 5 (39) across cell types; format: cell-based
Excerpt: Another difference between compound 6 and FTY720 or the enantiomer of compound 6, is that compound 6 has a specific and very high activity to BCR-Abl+ leukemias compared to other cell types. This trend is shown in FIG. 10d by calculating the ratio of 1050 for compound 6 (also called 177) and its enantiomer compound 5 (also called 39). If the drugs are similarly effective a ratio near 1 would be expected, and if compound 6 works better (has a lower 1050), a ratio greater than one as with SupB15s would be expected. […] Finally, it is seen that the Ph+ALL primary patient sample has a ratio greater than 1.

[9] = system: BCR-Abl- LAX7R cells; assay: Combination with trametinib in BCR-Abl- LAX7R patient leukemia cells; format: cell-based, human; settings: some BCR-Abl negative patient leukemia samples
Excerpt: FIGS. 10n and 10o provide data results from a study of the effectiveness of treating BCR-Abl+ SFO2 cells (10n), and also in BCR-Abl− LAX7R cells (10o), which is a late-stage leukemia resistant to chemotherapy.

CCCCCCCCc1ccc(CO[C@@H]2CN[C@@H](CO)C2)cc1.Cl [Compound 6]
cell killing at 72 h ([1]; 1 μM (=0.5×IC50), alone): does not kill | cell death in combination with dasatinib ([1]; 1 μM compound 6 + dasatinib 200 nM): increases cell death | cell viability at 72 h ([1]; 2 μM (1×IC50), alone): significantly reduces cell viability | cell death in combination with dasatinib ([1]; 2 μM compound 6 + dasatinib): increases cell death beyond that caused by compound 6 alone | IC50 ([1]; BCR-Abl+ SupB15 leukemia cell line, read-out: IC50): 2 µM | ability to kill leukemia cells, potency compared in words ([1]; Sup-B15 cell viability assays): activity much greater than compounds 5, 7, and 8; also recorded: enhanced anticancer activity relative to its diasteromeric congeners and to FTY720 | killing compared with dasatinib ([1]; both drugs at their maximally active dose): kills better than dasatinib | IC50 [2]: 6.9 ± 0.3 µM | IC50 [3]: 13.5 ± 2.6 µM | IC50 [4]: 15.1 ± 1 µM | effect on heart rate [5]: nor does it decrease heart rate | lymphocyte sequestration / immunosuppression [6]: does not cause immunosuppression | leukemic burden in the bone marrow [7]: dramatic reduction in the leukemic burden in the bone marrow | ratio of IC50, compound 6 versus its enantiomer compound 5 ([8]; 2 Ph+ ALL lines and BM transduced with BCR-ABL p190 fusion): greater than 1 | ratio of IC50, compound 6 versus its enantiomer compound 5 ([8]; 3 Ph- ALL lines): ~1 | sensitivity of non-sensitive line after p190 transduction ([8]; CCRF transduced with p190): becomes sensitized to compound 6 | ratio of IC50, compound 6 versus its enantiomer compound 5 ([8]; Ph+ALL primary patient sample): greater than 1 | sensitivity, combination with trametinib [9]: sensitive to this drug combination | sensitivity, single agent [9]: not sensitive to compound 6 as a single agent
